Reference: paper PMC6522510 (Nature Communications, 2019)

Tests used:
Set-up in all cases: species or system AML cell lines (8); Primary HTS, single concentration about 10 uM, Cell Titer Glo viability; log10 luminescence, per cent inhibition relative to cycloheximide control
Settings in all cases: 72 h, relative to cycloheximide control, log10 luminescence; inhibitor
[1] = test system: CHRF288-11
[2] = test system: CMK
[3] = test system: CMS
[4] = test system: M07e
[5] = test system: ML-2
[6] = test system: MOLM-13
[7] = test system: MV4-11
[8] = test system: U937

Structure (SMILES)	CHRF288-11 %inh [1] [%]	CMK %inh [2] [%]	CMS %inh [3] [%]	M07e %inh [4] [%]	ML-2 %inh [5] [%]	MOLM-13 %inh [6] [%]	MV4-11 %inh [7] [%]	U937 %inh [8] [%]
CCCS(=O)(=O)Nc1ccc(F)c(C(=O)c2c[nH]c3ncc(-c4ccc(Cl)cc4)cc23)c1F [SJ000574274-1, VEMURAFENIB | PLX-4032 | R-7204 | RG-7204 | RO-5185426 | PLX4032 | RG7204 | VEMURAFENIB (PLX4032, RG7204)]	-2.721	1.427	1.477	-0.8043	-0.6517	-2.361	-4.805	-0.9604
NC(=O)c1ccc(-c2nc(-c3ccc4c(c3)OCO4)c(-c3ccccn3)[nH]2)cc1 [SJ000574283-1, SB-431542 | SB431542]	-7.63	-2.116	0.4519	-4.824	0.07602	3.22	0.325	-2.319
CC(C)(C)c1cnc(CSc2cnc(NC(=O)C3CCNCC3)s2)o1 [SJ000574284-1, BMS-387032 | SNS-032]	54.06	91.14	97.36	111.6	59.52	98.7	73.5	69.97
Cc1cc(Nc2cc(N3CCN(C)CC3)nc(Sc3ccc(NC(=O)C4CC4)cc3)n2)n[nH]1 [SJ000574290-1, TOZASERTIB | VX-680 | MK-0457 | VX6 | VX-680 | TOZASERTIB | MK-0457 | | VX-680 (TOZASERTIB, MK-0457)]	110.2	63.64	15.77	61.91	25.05	88.48	64.96	19.84
CC(=O)Nc1cccc(-n2c(=O)n(C3CC3)c(=O)c3c(Nc4ccc(I)cc4F)n(C)c(=O)c(C)c32)c1 [SJ000574293-1, TRAMETINIB | GSK-1120212B | JTP-74057 | 1120212 | GSK-1120212 | GSK1120212 | TRAMETINIB (GSK1120212)]	30.11	4.055	21.59	16.11	27.14	39.84	40.11	11.49
N#CC[C@H](C1CCCC1)n1cc(-c2ncnc3[nH]ccc23)cn1 [SJ000574296-1, RUXOLITINIB | INCB-18424 | INCB-018424 | NCB018424 | INC-424 | INCB-424 | RUXOLITINIB | INCB-18424 | INCB-018424 | NCB018424 | INC-424 | INCB-424 | | RUXOLITINIB (INCB018424) | S-RUXOLITINIB (INCB018424)]	79.68	85.02	86.42	44.64	4.441	27.41	11.92	33.85
CCC(=O)O[C@]1(C(=O)CCl)[C@@H](C)C[C@H]2[C@@H]3C[C@H](F)C4=CC(=O)C=C[C@]4(C)[C@@]3(F)[C@@H](O)C[C@@]21C [SJ000574311-1, HALOBETASOL PROPIONATE]	2.781	-5.875	-1.131	1.449	0.4055	-1.713	1.288	2.458
COC(=O)C1=C(C)N(CCc2cc(OC)c(OC)c(OC)c2)C(=O)N[C@H]1c1ccccc1 [SJ000579768-1]	-6.017	-0.2715	-1.498	-5.412	-0.773	-2.193	3.524	-0.6782
CC1(OC(=O)C2CCCC2)C(=O)C=C2C=C(c3ccsc3)N(CCCCO)C=C2C1=O (stereo not shown) [SJ000579780-1]	-0.7955	-4.183	0.1638	-0.9393	-1.026	6.828	-0.2702	-0.2771
CC(=O)[C@@H]1[C@@H](C)N(Cc2ccccc2)C(=O)N[C@H]1c1cccc(C(F)(F)F)c1 [SJ000579797-1]	8.301	-5.628	1.099	-1.436	0.485	-2.815	0.5112	0.542
COC(=O)CCC(=O)OC1(C)C(=O)C=C2C=C(C3CC3)N(Cc3ccc(OC)cc3)C=C2C1=O (stereo not shown) [SJ000579817-1]	-0.5157	0.09613	1.001	4.577	0.04263	6.903	0.1893	-0.6979
COC(=O)CCCC1=CC2=CC(=O)C(C)(OC(=O)c3cccs3)C(=O)C2=CN1C1CCCCC1 (stereo not shown) [SJ000579837-1]	2.103	6.006	-0.4009	-0.3619	1.343	2.949	0.3457	1.516
COc1ccc(C2=CC3=C(Br)C(=O)C(C)(O)C(=O)C3=CO2)cc1 (stereo not shown) [SJ000580186-1]	-2.02	-1.841	-0.7753	0.3527	-0.5513	3.615	1.031	1.575
CC1(OC(=O)C2CCCC2)C(=O)C=C2C=C(c3ccsc3)OC=C2C1=O (stereo not shown) [SJ000580213-1]	1.734	0.9758	3.861	-2.766	-0.1394	3.751	0.3204	2.696
CC1(OC(=O)c2cccs2)C(=O)C=C2C=C3CCCN3C=C2C1=O (stereo not shown) [SJ000580493-1]	4.124	4.862	2.99	2.009	-0.6831	-0.7413	2.091	1.415
COc1ccc(O)c(C(=O)c2ccc(C(=O)O[C@@H]3CCCNC[C@H]3NC(=O)c3ccncc3)cc2)c1F [SJ000580951-1]	109.9	131.3	13.47	15.86	61.64	81.23	68.34	74.66
Cn1cc(C2=C(c3cn(CCCCN)c4ccccc34)C(=O)NC2=O)c2ccccc21 [SJ000580952-1]	13.76	13.68	1.981	-0.5312	4.061	4.295	8.937	11.79
